Reference: patent publication US9593155B2, “Oxyntomodulin analogs” (priority 2009, dated 2017)
Each block holds one molecule with its values, some of them ahead of it. *1 amine or outer side, *2 acyl side, *3 side chain or, on linkers, in order; H or OH if unused. Where a SMILES comes first, the peptide text is derived from it. Side-chain parts run from the residue outwards. [ ]: non-standard residue; d: D form. The star is where a group is joined. X3 = CC(C)CCC[C@@H](C)[C@H]1CC[C@H]2[C@@H]3CC=C4C[C@@H](OC(=O)CCOCCOCCOCCOCCNC(=O)C*)CC[C@]4(C)[C@H]3CC[C@]12C; γGlu = O=C(O)[C@H](CCC(=O)[*:2])N[*:1]; Palmitoyl = CCCCCCCCCCCCCCCC(=O)*

Experiments:
hGCGR [1] = molecular target: T1, hGCGR (Homo sapiens, UniProt P47871); assay: cell-based cAMP assay as described in WO2008101017 (Table 11), hGCGR
T1 sequence (P47871 26-477): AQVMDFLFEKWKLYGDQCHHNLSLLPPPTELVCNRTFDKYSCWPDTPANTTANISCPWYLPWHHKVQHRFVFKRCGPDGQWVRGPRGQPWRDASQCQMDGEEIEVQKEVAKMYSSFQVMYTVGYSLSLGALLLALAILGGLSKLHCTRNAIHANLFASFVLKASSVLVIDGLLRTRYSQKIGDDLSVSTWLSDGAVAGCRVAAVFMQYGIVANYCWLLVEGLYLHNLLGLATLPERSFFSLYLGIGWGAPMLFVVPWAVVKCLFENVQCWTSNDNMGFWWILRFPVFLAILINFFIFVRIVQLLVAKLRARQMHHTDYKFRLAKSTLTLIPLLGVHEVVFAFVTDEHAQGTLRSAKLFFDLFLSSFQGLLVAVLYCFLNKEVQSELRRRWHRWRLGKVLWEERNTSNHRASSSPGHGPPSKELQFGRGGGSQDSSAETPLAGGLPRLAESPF
Text: (§1) This example presents tables showing the in vitro potencies of various peptide analogs at the human GLP-1 receptor (hGLP-1R) and the human glucagon receptor (hGCGR).

[2] = system: human mast cell line LAD2; assay: mast cell degranulation counterscreen, beta-hexosaminidase release; assay type: cell-based; conditions: LAD2 cells, 30 minutes; read-out: Degranulation potency EC50
Description: LAD2 cells (50,000 cells/well, 96-well plate) were incubated with compounds for 30 minutes. The degranulation of LAD2 cells was determined by quantification of the β-hexosaminidase released into the supernatants and in cell lysates after hydrolysis of 4-methylumbelliferyl-N-acetyl-β-D-glucosaminide. Results are expressed as percentage of β-hexosaminidase release, calculated as percent of total content.

[3] = pI of the peptide analogs; conditions: Table 10
hGCGR [4] = molecular target: T1, hGCGR; assay: fluorescence cell based cAMP assay, CHO cells stably expressing GCGR; conditions: hGCGR + 20% plasma EC50, Table 10, 20% plasma
Description: We initially screened peptides in fluorescence cell based assays that measure production of cyclic-AMP (cAMP), using CHO cell lines stably expressing either recombinant human GLP-1R or human GCGR. Determination of Mouse and human GLP-1R and GCGR Agonist Activity was essentially as follows. CHO cells stably expressing mouse or human GLP-1R or GCGR were grown in Iscove's Modified Dulbecco's Medium (IMDM), 10% FBS, 1 mM L-glutamine, penicillin-streptomycin (100 μ/mL) and 750 μg G418/mL for three-four days before harvesting using Enzymefree Dissociation Media (EFDM, Specialty Media). […] The assay was terminated with the addition of the LANCE kit Detection buffer as per the manufacturer's instructions. The plates were held an additional hour at room temperature, then increasing cAMP levels were detected by a decrease in TR-FRET signal as measured in an EnVision counter (PerkinElmer) in comparison to a standard curve of cAMP as per the manufacturer's instructions. Data were analyzed using the linear and nonlinear regression analysis software, GraphPad Prism.
The in vitro potencies shown in Table 10 or Table 11 were determined from the results of assays that were similar to either the cell-based cAMP assays described herein above (Table 10) or the cell-based cAMP assays described in International Published Application No. WO2008101017, which is incorporated herein in its entirety, in particular the cell-based cAMP assays described therein (Table 11).

hGLP-1R = hGLP-1R (Homo sapiens, UniProt P43220); assay: cell-based cAMP assay as described in WO2008101017 (Table 11), hGLP-1R
hGLP-1R, sequence (P43220 24-463): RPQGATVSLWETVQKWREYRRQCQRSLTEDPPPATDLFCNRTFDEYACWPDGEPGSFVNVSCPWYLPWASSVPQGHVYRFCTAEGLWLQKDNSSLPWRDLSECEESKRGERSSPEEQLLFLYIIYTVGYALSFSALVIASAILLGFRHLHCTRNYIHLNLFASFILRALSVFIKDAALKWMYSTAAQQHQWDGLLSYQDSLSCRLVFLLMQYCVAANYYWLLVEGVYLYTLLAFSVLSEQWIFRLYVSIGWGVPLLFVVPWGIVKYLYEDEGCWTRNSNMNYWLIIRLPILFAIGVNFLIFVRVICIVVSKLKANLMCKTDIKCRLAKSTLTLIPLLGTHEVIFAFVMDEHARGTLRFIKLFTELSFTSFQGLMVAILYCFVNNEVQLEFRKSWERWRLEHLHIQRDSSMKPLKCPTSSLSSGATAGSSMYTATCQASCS
Text: as §1

- EC50 (hGCGR [1]): 0.006 nM
Structure (SMILES): CCCCCCCCCCCCCC(=O)N[C@@H](CCC(=O)N[C@@H](CCC(=O)NCCCC[C@H](NC(=O)[C@H](CC(=O)O)NC(=O)[C@H](CO)NC(=O)[C@@H](NC(=O)[C@H](Cc1ccccc1)NC(=O)[C@@H](NC(=O)CNC(=O)[C@H](CCC(N)=O)NC(=O)[C@@H](CO)NC(=O)[C@@H](N)Cc1c[nH]cn1)[C@@H](C)O)[C@@H](C)O)C(=O)N[C@@H](CO)C(=O)N[C@@H](CCCCN)C(=O)N[C@@H](Cc1ccc(O)cc1)C(=O)N[C@@H](CC(C)C)C(=O)N[C@@H](CC(=O)O)C(=O)NC(C)(C)C(=O)N[C@@H](CCCNC(=N)N)C(=O)N[C@@H](CCCNC(=N)N)C(=O)N[C@@H](C)C(=O)N[C@@H](CCC(N)=O)C(=O)N[C@@H](CC(=O)O)C(=O)N[C@@H](Cc1ccccc1)C(=O)N[C@H](C(=O)N[C@@H](CCC(N)=O)C(=O)N[C@@H](Cc1c[nH]c2ccccc12)C(=O)N[C@@H](CC(C)C)C(=O)N[C@@H](CCSC)C(=O)N[C@@H](CC(N)=O)C(=O)N[C@H](C(=O)N[C@@H](CCCCN)C(=O)N[C@@H](CCC(N)=O)C(=O)O)[C@@H](C)O)C(C)C)C(=O)O)C(=O)O [MM121]

Structure (SMILES): CCCCCCCCCCCCCCCC(=O)N[C@@H](CCC(=O)N[C@@H](CCC(=O)NCCCC[C@H](NC(=O)[C@H](C)NC(=O)[C@H](CCCNC(=N)N)NC(=O)[C@H](CCCNC(=N)N)NC(=O)[C@H](CCC(=O)O)NC(=O)[C@H](CC(=O)O)NC(=O)[C@H](CC(C)C)NC(=O)[C@H](Cc1ccc(O)cc1)NC(=O)[C@H](CCCCN)NC(=O)[C@H](CO)NC(=O)[C@H](Cc1ccc(O)cc1)NC(=O)[C@H](CC(=O)O)NC(=O)[C@H](CO)NC(=O)[C@@H](NC(=O)[C@H](Cc1ccccc1)NC(=O)[C@@H](NC(=O)CNC(=O)[C@H](CCC(N)=O)NC(=O)[C@@H](CO)NC(=O)[C@@H](N)Cc1c[nH]cn1)[C@@H](C)O)[C@@H](C)O)C(=O)N[C@@H](CC(=O)O)C(=O)N[C@@H](Cc1ccccc1)C(=O)N[C@H](C(=O)N[C@@H](CCC(N)=O)C(=O)N[C@@H](Cc1c[nH]c2ccccc12)C(=O)N[C@@H](CC(C)C)C(=O)N[C@@H](CCSC)C(=O)N[C@@H](CC(N)=O)C(=O)N[C@H](C(=O)N[C@@H](CCCCN)C(N)=O)[C@@H](C)O)C(C)C)C(=O)O)C(=O)O [OXM410] (H-H[dS]QGTFTSDYSKYLDERRAK([γGlu-γGlu-Palmitoyl])DFVQWLMNTK-NH2; N-terminus assumed)
- EC50 [2]: > 10000 nM

Structure (SMILES): CSCC[C@H](NC(=O)[C@H](CC(C)C)NC(=O)[C@H](Cc1c[nH]c2ccccc12)NC(=O)[C@H](CCC(N)=O)NC(=O)[C@@H](NC(=O)[C@H](Cc1ccccc1)NC(=O)[C@H](CC(=O)O)NC(=O)[C@H](CCC(N)=O)NC(=O)[C@H](C)NC(=O)[C@H](C)NC(=O)[C@H](CCC(=O)O)NC(=O)[C@H](CO)NC(=O)[C@H](CC(=O)O)NC(=O)[C@H](CC(C)C)NC(=O)[C@H](Cc1ccc(O)cc1)NC(=O)[C@H](CCCCN)NC(=O)[C@H](CO)NC(=O)[C@H](Cc1ccc(O)cc1)NC(=O)[C@H](CC(=O)O)NC(=O)[C@H](CO)NC(=O)[C@@H](NC(=O)[C@H](Cc1ccccc1)NC(=O)[C@@H](NC(=O)CNC(=O)[C@H](CCC(N)=O)NC(=O)[C@@H](CO)NC(=O)[C@@H](N)Cc1c[nH]cn1)[C@@H](C)O)[C@@H](C)O)C(C)C)C(=O)N[C@@H](CC(N)=O)C(=O)N[C@H](C(=O)N[C@@H](CCCCN)C(=O)N[C@@H](CSCC(=O)NCCOCCOCCOCCOCCC(=O)O[C@H]1CC[C@@]2(C)C(=CC[C@H]3[C@@H]4CC[C@H]([C@H](C)CCCC(C)C)[C@@]4(C)CC[C@@H]32)C1)C(N)=O)[C@@H](C)O [OXM303] (H-H[dS]QGTFTSDYSKYLDSEAAQDFVQWLMNTKC(X3)-NH2; N-terminus assumed)
- EC50 [2]: 100 nM

- EC50 (hGCGR [1]): 0.004 nM
Structure (SMILES): CCCCCCCCCCCCCCCCCC(=O)N[C@@H](CCC(=O)N[C@@H](CCC(=O)NCCCC[C@H](NC(=O)[C@H](CC(=O)O)NC(=O)[C@H](CO)NC(=O)[C@@H](NC(=O)[C@H](Cc1ccccc1)NC(=O)[C@@H](NC(=O)CNC(=O)[C@H](CCC(N)=O)NC(=O)[C@@H](CO)NC(=O)[C@@H](N)Cc1c[nH]cn1)[C@@H](C)O)[C@@H](C)O)C(=O)N[C@@H](CO)C(=O)N[C@@H](CCCCN)C(=O)N[C@@H](Cc1ccc(O)cc1)C(=O)N[C@@H](CC(C)C)C(=O)N[C@@H](CC(=O)O)C(=O)NC(C)(C)C(=O)N[C@@H](CCCNC(=N)N)C(=O)N[C@@H](CCCNC(=N)N)C(=O)N[C@@H](C)C(=O)N[C@@H](CCC(N)=O)C(=O)N[C@@H](CC(=O)O)C(=O)N[C@@H](Cc1ccccc1)C(=O)N[C@H](C(=O)N[C@@H](CCC(N)=O)C(=O)N[C@@H](Cc1c[nH]c2ccccc12)C(=O)N[C@@H](CC(C)C)C(=O)N[C@@H](CCSC)C(=O)N[C@@H](CC(N)=O)C(=O)N[C@H](C(=O)N[C@@H](CCCCN)C(=O)N[C@@H](CCC(N)=O)C(=O)O)[C@@H](C)O)C(C)C)C(=O)O)C(=O)O [MM132]

Structure (SMILES): CCCCCCCCCCCCCCCC(=O)N[C@@H](CCC(=O)N[C@@H](CCC(=O)NCCCC[C@H](NC(=O)[C@H](C)NC(=O)[C@H](CCCNC(=N)N)NC(=O)[C@H](CCCNC(=N)N)NC(=O)[C@H](CO)NC(=O)[C@H](CC(=O)O)NC(=O)[C@H](CC(C)C)NC(=O)[C@H](Cc1ccc(O)cc1)NC(=O)[C@H](CCCCN)NC(=O)[C@H](CO)NC(=O)[C@H](Cc1ccc(O)cc1)NC(=O)[C@H](CC(=O)O)NC(=O)[C@H](CO)NC(=O)[C@@H](NC(=O)[C@H](Cc1ccccc1)NC(=O)[C@@H](NC(=O)CNC(=O)[C@H](CCC(N)=O)NC(=O)[C@@H](CO)NC(=O)[C@@H](N)Cc1c[nH]cn1)[C@@H](C)O)[C@@H](C)O)C(=O)N[C@@H](CC(=O)O)C(=O)N[C@@H](Cc1ccccc1)C(=O)N[C@H](C(=O)N[C@@H](CCC(N)=O)C(=O)N[C@@H](Cc1c[nH]c2ccccc12)C(=O)N[C@@H](CC(C)C)C(=O)N[C@@H](CCSC)C(=O)N[C@@H](CC(N)=O)C(=O)N[C@H](C(=O)N[C@@H](CCCCN)C(=O)N[C@@H](CCC(N)=O)C(=O)O)[C@@H](C)O)C(C)C)C(=O)O)C(=O)O [OXM408]
- EC50 [2]: > 10000 nM

Structure (SMILES): CCCCCCCCCCCCCCCC(=O)N[C@@H](CCC(=O)N[C@@H](CCC(=O)NCCCC[C@H](NC(=O)[C@H](CC(=O)O)NC(=O)[C@H](CO)NC(=O)[C@@H](NC(=O)[C@H](Cc1ccccc1)NC(=O)[C@@H](NC(=O)CNC(=O)[C@H](CCC(N)=O)NC(=O)[C@@H](CO)NC(=O)[C@@H](N)Cc1c[nH]cn1)[C@@H](C)O)[C@@H](C)O)C(=O)N[C@@H](CO)C(=O)N[C@@H](CCCCN)C(=O)N[C@@H](Cc1ccc(O)cc1)C(=O)N[C@@H](CC(C)C)C(=O)N[C@@H](CC(=O)O)C(=O)N[C@@H](CCC(=O)O)C(=O)N[C@@H](CCCNC(=N)N)C(=O)N[C@@H](CCCNC(=N)N)C(=O)N[C@@H](C)C(=O)N[C@@H](CCC(N)=O)C(=O)N[C@@H](CC(=O)O)C(=O)N[C@@H](Cc1ccccc1)C(=O)N[C@H](C(=O)N[C@@H](CCC(N)=O)C(=O)N[C@@H](Cc1c[nH]c2ccccc12)C(=O)N[C@@H](CC(C)C)C(=O)N[C@@H](CCSC)C(=O)N[C@@H](CC(N)=O)C(=O)N[C@H](C(=O)N[C@@H](CCCCN)C(N)=O)[C@@H](C)O)C(C)C)C(=O)O)C(=O)O [OXM411] (H-H[dS]QGTFTSDK([γGlu-γGlu-Palmitoyl])SKYLDERRAQDFVQWLMNTK-NH2; N-terminus assumed)
- EC50 [2]: > 10000 nM
- pI [3]: 5.4

- EC50 (hGCGR [4]): 0.3 nM
- EC50 (hGLP-1R): 0.026 nM
- pI [3]: 5.5
Structure (SMILES): CCCCCCCCCCCCCCCC(=O)N[C@@H](CCC(=O)N[C@@H](CCC(=O)NCCCC[C@H](NC(=O)[C@H](CC(=O)O)NC(=O)[C@H](CO)NC(=O)[C@@H](NC(=O)[C@H](Cc1ccccc1)NC(=O)[C@@H](NC(=O)CNC(=O)[C@H](CCC(N)=O)NC(=O)[C@@H](CO)NC(=O)[C@@H](N)Cc1c[nH]cn1)[C@@H](C)O)[C@@H](C)O)C(=O)N[C@@H](CO)C(=O)N[C@@H](CCCCN)C(=O)N[C@@H](Cc1ccc(O)cc1)C(=O)N[C@@H](CC(C)C)C(=O)N[C@@H](CC(=O)O)C(=O)NC(C)(C)C(=O)N[C@@H](CCCNC(=N)N)C(=O)N[C@@H](CCCNC(=N)N)C(=O)N[C@@H](C)C(=O)N[C@@H](CCC(N)=O)C(=O)N[C@@H](CC(=O)O)C(=O)N[C@@H](Cc1ccccc1)C(=O)N[C@H](C(=O)N[C@@H](CCC(N)=O)C(=O)N[C@@H](Cc1c[nH]c2ccccc12)C(=O)N[C@@H](CC(C)C)C(=O)N[C@@H](CCSC)C(=O)N[C@@H](CC(N)=O)C(=O)N[C@H](C(=O)N[C@@H](CCCCN)C(=O)N[C@@H](CCC(N)=O)C(=O)O)[C@@H](C)O)C(C)C)C(=O)O)C(=O)O [OXM418]
